Measurements: paper PMC10525438 (2023)

What was measured:
[1] = system: h18-Ψ (RNA, rRNA, pseudouridine at 516 (E. coli numbering; residue 6 of the 30-nt model)) CUCCGUGCCAGCAGCCGCGGUAAUACGGAG; test: CD titration at 265 nm; details: 15 mM KCl, 4 mM MgCl2; 20 mM potassium cacodylate pH 7.0, 30 °C; 5 µM RNA (Methods print a different CD buffer, pH 7.6)
[2] = system: h18-U (RNA, rRNA) CUCCGUGCCAGCAGCCGCGGUAAUACGGAG; test: CD titration at 265 nm; details: 15 mM KCl, 4 mM MgCl2; 20 mM potassium cacodylate pH 7.0, 30 °C; 5 µM RNA (Methods print a different CD buffer, pH 7.6)

- Kd [1]: 23 ± 3 µM
- Kd [2]: 63 ± 1 µM
SMILES: CN[C@@H]1[C@H](O[C@H]2[C@H](O[C@H]3[C@H](O)[C@@H](O)[C@H](N=C(N)N)[C@@H](O)[C@@H]3N=C(N)N)O[C@@H](C)[C@]2(O)C=O)O[C@@H](CO)[C@H](O)[C@H]1O
